In PubChem BioAssay (NCI) one finds TGI data, which are given here for 3 molecules.

Holding throughout (test): DTP human tumour cell line panel, 48 h
Test [1] has as its system KM12 colon.
Test [2] deals with LOX IMVI melanoma.
The test system of test [3] is OVCAR-3 ovarian.
Test [4] deals with SF-268 CNS.
In test [5] the test system is NCI-H226 lung.
The test system of test [6] is RPMI-8226 leukemia.
Test [7] relates to CCRF-CEM leukemia.
For test [8], the system named is UACC-257 melanoma.
Test [9] has as its system SNB-19 CNS.
The test system of test [10] is MDA-MB-231 breast.

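Exposure lasted 48 hours, with cells grown in 96-well plates and compounds tested at five concentrations. TGI marks complete inhibition of growth.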

With `O=CN1CCN(C(=O)c2ccc(Cl)cc2Cl)C1=S`, the TGI in test [1], in [2], in test [3], in test [4], in test [5] and in [6] was > 100 µM each time. Moreover, the TGI in test [7], in test [8], in [9] and in test [10] was > 100 µM throughout.
On to `Cn1c(=O)c(C(=O)Nc2nc(C34CC5CC(CC(C5)C3)C4)cs2)c(O)c2ccccc21`, for which the TGI in test [1], in test [2], in test [3], in test [4], in [5] and in test [6] was > 100 µM in each case. For the same molecule, the TGI in [7], in test [8], in [9] and in [10] was > 100 µM each time.
As to `COc1ccc2nc3c([N+](=O)[O-])ccc4c3c(c2c1)NCCN4CCO`, the TGI in test [1] is 2.35 µM; in test [2] it was 0.792 µM; in test [3], 2.91 µM; in test [4], 6.26 µM; in test [5], 0.958 µM; in [6] it was 2.61 µM. The TGI was determined as 2 µM in [7], 1.5 µM in test [8], 3.08 µM in [9] and 2.05 µM in test [10].

Broadly, the TGI is the concentration giving total growth inhibition. Low values mean more potent growth arrest, high ones less potent growth arrest.
